{"source": "patent US20180252705A1", "about": "“Myeloid Progenitor Cells in Kidney Disease” (Rush University Medical Center, priority 2015, published 2018)", "molecules": {"B1": {"name": "G-CSF: Recombinant mouse G-CSF (Shenandoah Biotechology INC) (protein, UniProt P09920 31-208, looked up)", "Granulocyte …": "VPLVTVSALPPSLPLPRSFLLKSLEQVRKIQASGSVLLEQLCATYKLCHPEELVLLGHSLGIPKASLSGCSSQALQQTQCLSQLHSGLCLYQGLLQALSGISPALAPTLDLLQLDVANFATTIWQQMENLGVAPTVQPTQSAMPAFTSAFQRRAGGVLAISYLQGFLETARLALHHLA"}}, "key": {"LPS-challenged mice": {"tested_on": "LPS-challenged mice", "experiment": "LPS-induced proteinuria after pretreatment, albumin creatinine ratio (ACR)", "type": "in vivo, mouse", "details": "agent given prior to LPS challenge; urine 24 hours after LPS; compared to LPS alone / isotype control", "experimental": "(§1) Albumin creatinine ratio (ACR) measurement Mouse urine samples were collected and urinary albumin and creatinine were measured by mouse albumin ELISA (Bethyl Labs), and creatinine assay (Cayman chemical) kits according to manufacturers' protocols. The ratio of urinary albumin to creatinine was then calculated.\n(§2) Proteinuric animal models. i) LPS injected mice. Proteinuria was induced with single injection of LPS as described previously (Wei et al., 2008; Wei et al.,). Briefly, mice were injected with LPS (Sigma) i.p at a dose of 10 mg per kg body weight. The mice injected with PBS were used as a control. Twenty-four hours after LPS treatment, urine and blood samples were collected and kidney, femurs, and tibias were harvested from the sacrificed mice.\nIn vivo depletion. Anti-Ly6G monoclonal antibody (1A8, BioXcell) or control rat IgG2a antibody (2A3, BioXcell) was injected i.p into mice (500 μg per mouse) 48 hours and 1 hour prior to LPS injection. Neutrophil depletion was confirmed by flow cytometric analysis.\n(§3) Treatment of granulocyte colony stimulating factor (G-CSF). Recombinant mouse G-CSF (Shenandoah Biotechology INC) was administrated by daily i.p injection into BALB/c mice at a dose of 4 μg per 20 g body weight for 2 consecutive days. Blood cell counts were determined using a Hemavet 950FS (Drew Scientific).\nTreatment of plerixafor. […]"}, "suPAR [1]": {"tested_on": "suPAR", "experiment": "Circulating and urinary suPAR levels (ELISA) in proteinuric animal models", "type": "in vivo, mouse", "experimental": "(§4) Detection of circulating and urinary suPAR levels Mouse suPAR levels from plasma (and/or serum) and urine were evaluated by enzyme-linked immunosorbent assay (ELISA) kit (R&D systems) following the manufacturer's protocol.\nas §2\nii) Pod-Rac1, Inducible EGFP_CA-Rac1 transgenic mice. EGFP_CA-Rac1 transgenic mice were crossed to Nphs1-rtTA (NEF-rtTA) inducer mice to generate double transgenic (dTG, NEF×Rac1) mice. Male mice were used in this study. To induce transgene expression, regular chow was replaced with doxycycline (DOX)-supplemented chow (2,000 ppm; TestDiet). Single transgenic (EGFP_CA-Rac1) mice were used as a control. Twelve days after DOX diet, urine and blood samples were collected and kidney, femurs, and tibias were harvested from the sacrificed mice. Hi) Adiamycin (ADR) injected mice: Proteinuria was induced with single injection of ADR as described previously. […]"}, "BM myeloid cells": {"tested_on": "BM myeloid cells", "experiment": "Flow cytometric analysis of BM cells (uPAR, Gr-1, Sca-1) in proteinuric animal models", "type": "in vivo, mouse", "experimental": "as §2\nii) Pod-Rac1, Inducible EGFP_CA-Rac1 transgenic mice. EGFP_CA-Rac1 transgenic mice were crossed to Nphs1-rtTA (NEF-rtTA) inducer mice to generate double transgenic (dTG, NEF×Rac1) mice. Male mice were used in this study. To induce transgene expression, regular chow was replaced with doxycycline (DOX)-supplemented chow (2,000 ppm; TestDiet). Single transgenic (EGFP_CA-Rac1) mice were used as a control. Twelve days after DOX diet, urine and blood samples were collected and kidney, femurs, and tibias were harvested from the sacrificed mice. Hi) Adiamycin (ADR) injected mice: Proteinuria was induced with single injection of ADR as described previously. (Wang et al.) Briefly, male BALB/c mice were injected with ADR (Doxorubicin Hydrochloride, Sigma) via the tail vein at a dose of 11 mg per kg body weight. Six days after ADR injection, urine and blood samples were collected and kidney, femurs, and tibias were harvested from the sacrificed mice. iv) TGF β1 transgenic mice: The transgenic mice that express an active form of TGF β1 under the control of murine albumin promoter developed proteinuria as described previously (Kopp et al.). Since the transgene is on the Y chromosome, male mice (<4-week-old) with severe phenotype were used. Littermate female mice were used as a control. v) Nephrotoxic serum (NTS) nephritis model: Proteinuria was induced by injection of NTS as described previously (Kistler et al.). Briefly, male C57BL6 mice were injected i.p with sheep anti-rabbit glomerular basement membrane antibody at a dose of 500 mg per kg body weight on consecutive days. The mice injected PBS were used as a control. Seven days after injection, urine and blood samples were collected and kidney, femurs, and tibias were harvested from the sacrificed mice. vi) BTBR ob/ob diabetic nephropathy (DN) model: The mouse strain BTBR with the ob/ob leptin-deficiency mutation developed severe type 2 diabetes with heavy proteinuria as described previously (Hudkins et al.). Wild-type (BTBR ob^+/+), heterozygous (BTBR ob^+/−), and homozygous (BTBR ob^−/−) mice were obtained by mating heterozygous (BTBR ob^+/−) mice. For DN model, 16-week-old homozygotes (BTBR ob^−/−) were used. Wild-type (BTBR ob^+/+) or heterozygote (BTBR ob^+/−) littermates were used as controls.\nPurification of mouse PBLs and BMCs. To collect blood, mice were anesthetized, then the blood was drawn from posterior vena cava into acid-citrate-dextrose (ACD, Sigma) solution-containing 1 ml syringe. After lysis of red blood cells (RBCs), blood leukocytes were washed and counted. For BMCs purification, femurs and tibias were taken and flushed with a syringe filled with Hank's balanced salt solution (HBSS, Life Technologies) containing 0.1% bovine serum albumin and 20 mM HEPES (pH 7.4). […]\nFlow cytometric analysis. […] And the cells were labeled for 30 minutes on ice with fluorescence-conjugated antibodies: Gr-1-allophycocyanin (APC), uPAR-phycoerythrin (PE), Sca-1-fluorescein isothiocyanate (FITC), c-kit-APC, and irrelevant IgG isotype control antibodies. […]"}, "NSG mice": {"tested_on": "NSG mice", "experiment": "Proteinuria (ACR) in LPS injected NSG mice", "type": "in vivo, mouse", "details": "LPS vs PBS, 24 hours after LPS administration", "experimental": "as §1, §2"}, "BM cells": {"tested_on": "BM cells", "experiment": "in vitro LPS stimulation on isolated BM cells", "type": "cell-based, mouse", "details": "LPS 0.1, 1 and 10 μg/ml, 24-hour incubation, dose-dependent", "experimental": "in vitro LPS stimulation on isolated BM cells. The BM cells were isolated from C57BL6 WT mice and treated with PBS or various concentrations of LPS (0.1, 1, and 10 μg/ml). Following 24-hour-incubation at 37 C in a CO2 incubator (5%), the cells and culture supernatants were collected. The cells were stained for uPAR, Sca-1, and Gr-1. The in vitro induction of uPAR+Sca-1^loGr-1^lo cells in total BM cells was determined by triple color-flow cytometric analysis. The culture supernatants were used for suPAR measurement."}, "suPAR [2]": {"tested_on": "suPAR", "experiment": "Plasma suPAR levels (ELISA) in pretreated LPS-challenged mice", "type": "in vivo, mouse", "details": "G-CSF for two consecutive days prior to LPS; 24 hours after LPS; compared to LPS alone", "experimental": "as §4, §2, §3"}, "[3]": {"details": "ADR-induced nephropathy, male BALB/c, 11 mg per kg tail vein, six days after injection"}}, "note": "Entries after “also recorded” stand apart in the source; their conditions may differ. Counter-ions that a name gives are not always drawn."}
{"molecule": "c1cc(CN2CCCNCCNCCCNCC2)ccc1CN1CCCNCCNCCCNCC1", "note": "[plerixafor, Plerixafor]", "values": [{"measurement": "proteinuria (ACR)", "setting": "LPS-challenged mice", "value": "did not enhance proteinuria"}]}
{"molecule": "COc1cccc2c1C(=O)c1c(O)c3c(c(O)c1C2=O)C[C@@](O)(C(=O)CO)C[C@@H]3O[C@H]1C[C@H](N)[C@H](O)[C@H](C)O1", "note": "[ADR, Doxorubicin Hydrochloride]", "values": [{"measurement": "suPAR levels in the circulation or urine", "setting": "suPAR [1]; [3]", "value": "did not find elevated suPAR levels"}, {"measurement": "percentage of Gr-1^lo myeloid cells in BM", "setting": "BM myeloid cells; [3]", "value": "no significant increase"}]}
{"molecule": "lipopolysaccharide [LPS]", "values": [{"measurement": "proteinuria (ACR)", "setting": "NSG mice", "value": "resulting in proteinuria; also recorded: caused proteinuria"}, {"measurement": "suPAR levels in blood and urine", "setting": "suPAR [1]; NSG mice, LPS vs PBS, 24 hours after LPS administration", "value": "elevated suPAR levels in both blood and urine; also recorded: enhanced blood suPAR levels"}, {"measurement": "uPAR-expressing Sca-1/Gr-1^lo BM cell population (myeloid progenitor cells)", "setting": "BM myeloid cells; LPS vs PBS injected mice, 24 hours", "value": "increased uPAR-expressing BM cell population; also recorded: increased the population of Sca-1^+Gr-1^lo myeloid progenitor cells"}, {"measurement": "uPAR expression on BM myeloid cells (not peripheral blood myeloid cells)", "setting": "BM myeloid cells; LPS-treated vs PBS-treated mice", "value": "elevated levels of uPAR; also recorded: increased uPAR expression"}, {"measurement": "uPAR expression on BM myeloid cells", "setting": "BM myeloid cells; NSG mice, LPS vs PBS", "value": "increased uPAR expression on BM myeloid cells"}, {"measurement": "Gr-1^lo cells in BM (percentage; ratio to Gr-1^hi)", "setting": "BM myeloid cells; WT mice, LPS vs PBS, 24 hours", "value": "significant increase; also recorded: markedly increased ratio"}, {"measurement": "expansion of uPAR-expressing MPCs (uPAR+Sca-1^lo Gr-1^lo cells in total BM cells)", "setting": "BM cells", "value": "stimulated the expansion of uPAR-expressing MPCs"}, {"measurement": "suPAR secretion into the culture medium", "setting": "BM cells; suPAR ELISA", "value": "stimulated"}]}
{"molecule": "B1", "values": [{"measurement": "proteinuria (ACR)", "setting": "LPS-challenged mice", "value": "accelerated proteinuria"}, {"measurement": "plasma suPAR levels", "setting": "suPAR [2]", "value": "increased plasma suPAR levels; also recorded: enhanced plasma suPAR levels"}]}
